One data set concerns endothelial cells. As to conditions: cell proliferation and migration in endothelial cells, phosphorylation of PI3-K/Akt, JNK and eNOS; cited from earlier work.
The test system of the next data set is NF-κB in RAW 264.3 cells. In words: Luciferase activity of NF-κB, VEGF-induced. The data set is classed as cell-based. As to conditions: chemicals 1, 10 and 25 µM, avastin 10 ng/mL. The method, then: The luciferase of NK-κB activity was performed following a previous report. Briefly, RAW 264.3 cells were transfected with pNF-κB (Thermo Fisher Scientific) using jetPRIME and incubated for 24 h. The refresh medium was replaced every four hours, and drug treatments were added twice after 24 h or 48 h. Upon completion of the reaction, the chemical luminescent intensity was determined by a luminometer (Promega, WI, USA) and normalized by protein concentrations.

Data set [1] can be described thus: Chemical stability test through HPLC analysis. The data set is classed as physicochemical. As to conditions: for Inter-Day RSD / Inter-Day Mean Peak Area: 6 consecutive days; for Inter-Day RSD / Intra-Day RSD: n = 6; for Inter-Day Mean Peak Area / Intra-Day Mean Peak Area: n = 6, 210 nm; for Intra-Day RSD / Intra-Day Mean Peak Area: same day; for Stability in aqueous solution (in words): acidic, neutral and basic conditions, HPLC. The text has this: Chemical degradation has been a major factor resulting in molecular hydrolysis, oxidation, light-catalyzed degradation and so on. Therefore, stability in aqueous solution, including acidic, neutral and basic conditions, has become a crucial requirement for a promising drug candidate. Prior to the biochemical assay, three phytochemicals were subjected to HPLC analysis to determine their stabilities in various solutions. Glycine buffer (pH 8–11), PBS (pH 7–8) and acetate buffer (pH 4–6) were employed to cover the main pH ranges. […].
The stability test was validated by determining the intra-day and inter-day variability through HPLC analysis, which was performed on an Agilent 1200 Liquid Chromatography (Santa Clara, CA, USA) equipped with an ODS C18 column (4.6 mm × 250 mm). Glycine buffer (pH 8–11), PBS (pH 7–8) and acetate buffer (pH 4–6) were employed to cover main pH ranges. Stock solutions at a concentration of 10 mM of the test compounds were prepared in DMSO and stored at −20 °C, while working concentrations were prepared at 1–5 μM solution in DMSO and buffers. Chromatography was conducted through the ORBAX XDB-C18 column (Agilent, 4.6 × 50 mm, 1.8 μm). The mobile phase was a mixture of water and acetonitrile (95:5, v/v), and the elution time was 15 min. The mobile phase flow rate and injection volume were 1.0 mL/min and 10 μL, respectively. Analytes were detected at a 210 nm wavelength. The intra-day and inter-day stability was calculated by analyzing six replicates of the standard solution of the two analytes during a single day and six replicates of the samples detected on six consecutive days, respectively. Thereafter, the relative standard deviation (RSD) was determined as a measurement of stability.

The target in another data set is T1, VEGF protein (Homo sapiens, UniProt P15692).
T1 construct: purchased MCE
T1 sequence (P15692 1-191 isoform P15692-4): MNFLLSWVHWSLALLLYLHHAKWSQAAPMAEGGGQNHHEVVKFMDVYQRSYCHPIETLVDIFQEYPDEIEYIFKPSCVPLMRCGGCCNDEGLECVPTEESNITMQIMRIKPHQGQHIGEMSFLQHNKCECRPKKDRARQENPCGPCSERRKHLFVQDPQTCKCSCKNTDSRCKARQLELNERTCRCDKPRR
In words: Ultrafiltration-based affinity assay. The data set is classed as binding. As to conditions: ligand 0.02 µM, VEGF protein 0.02 µM, 4 °C, 2 h, n = 4. On the procedure: Caco-2 cells were cultured until fully differentiated after being cultured for 21 days, and the integrity of cell monolayer was determined by the transepithelial electrical resistance (TEER). * p < 0.05. […] Red curve: initial concentration of chemicals; black curve: concentration of chemicals binding to the protein (Cpre − Cpost). n = 4.
The binding affinity was evaluated through the previous approach. Specifically, the tested ligands at 0.02 µM were mixed with or without 0.02 µM of the VEGF protein (MCE, Monmouth Junction, NJ, USA) and incubated in Milli-Q water (Burlington, MA, USA) at 4 °C for 2 h. The mixture was transferred to a 0.5 mL ultrafiltration tube (2000 MW cutoff; Sartorius Stedim Biotech, Gottingen, Germany). After multiple rounds of centrifugation, the supernatant was further analyzed through HPLC investigation, as described above in Section 4.6.

For data set [2], the system named is HaCaT cells. The data set is described as follows: MTT cell viability assay. The data set is classed as cell-based, human. As to conditions: concentrations up to 100 µM, 24 h. On the procedure:
Cell viability was assessed with the MTT assay to evaluate the potential toxicity effect of the tested drugs. HaCaT cells were seeded onto 96-well plates for 24 h prior to drug treatments. After incubations for 24 h, an MTT solution in a final concentration of 0.5 mg/mL was added to each well. Following another 3 h of incubation, DMSO solvent was used to dissolve the purple formazan crystals generated in each well. The absorbance of the samples at 570 nm was measured using a microplate reader (Thermo Fisher Scientific). The cell viability was calculated as follows: cytotoxicity (%) = (experimental value − low control)/(high control − low control) × 100%.

For data set [3], the system named is HaCaT cells. The data set is described as follows: Wound closure (wound healing) assay, VEGF-induced. The data set is classed as cell-based. As to conditions: Homo sapiens, 20 h, read-out: IC50 of inhibition of wound recovery rate. The method, then:
Photos of each cell scrape at 0 (At0) and 20 h (At20) were captured with microscope and imaging software (Zen, https://www.zeiss.com/microscopy/en/home.html, accessed on 1 September 2024) at a 10× magnification. […] A: positive control, Avastin; F: farrerol; O: ononin; E: (−)-epicatechin.
A wound closure assay was performed on cultured HaCaT cells to study cell migration in vitro. Procedures were described previously by Guo et al.. Briefly, HaCaT cells were seeded onto a 12-well plate with a density of 3 × 10^5 cells/well. Treatments were given when cells grew to full confluency. After serum starvation, sterile 200 μL pipette tips were used to make a vertical and a horizontal scrape on the cell monolayer in a consistent manner. Cells were washed with PBS and treated with drugs at various concentrations. Photos of each cell scrape at 0 (At0) and 20 h (At20) were captured with a microscope and imaging software (Zen) at a 10× magnification. The software TScratch (CSE lab, Zurich, Switzerland, https://github.com/cselab/TScratch, accessed on 1 September 2024) was used to analyze the open area of each scrape photo at different timepoints. Quantification of the recovery rate of the wound was calculated based on the following equation: wound closure (%) = (At0 − At20)/At20 × 100%.

In another data set the test system is tumor growth. As to conditions: nude mice; cited from earlier work.

Where two headings read alike, the source gives them in different places.

Regarding `OC[C@H]1O[C@@H](Oc2cc(O)cc(/C=C/c3ccc(O)cc3)c2)[C@H](O)[C@@H](O)[C@@H]1O` [polydatin], the “Inhibition of VEGF-mediated biological activities (in words)” value with endothelial cells was “robust inhibition”.
For the molecule “avastin: Bevacizumab (avastin), first monoclonal antibody targeting the VEGF protein; positive control”, in the data set on NF-κB in RAW 264.3 cells, the “Effect on VEGF-induced NF-κB activity (in words)” value (from here on “Effect … (in words)”) is reported as “attenuate the NF-κB signal”.
Consider `Oc1cc(O)c2c(c1)O[C@H](c1ccc(O)c(O)c1)[C@H](O)C2` [(−)-epicatechin], for which, in data set [1] (acidic (acetate buffer pH 4–6)), the “Inter-Day RSD” value was determined as 11.91%, the “Inter-Day Mean Peak Area” value worked out at 2510.4, the “Intra-Day RSD” value is 3.98% and the “Intra-Day Mean Peak Area” value is 2751.5. Also, in data set [1], the “Stability in aqueous solution (in words)” value was “some mild degradation of (−)-epicatechin was induced in acidic and basic environments”. Further, in data set [1] (basic (glycine buffer pH 8–11)), the “Inter-Day RSD” value is reported as 13.58%, the “Inter-Day Mean Peak Area” value came to 2519.4, the “Intra-Day RSD” value was 4.85% and the “Intra-Day Mean Peak Area” value is reported as 2726.0. Also, in data set [1] (neutral (PBS pH 7–8)), the “Inter-Day RSD” value amounted to 7.56%, the “Inter-Day Mean Peak Area” value is listed as 2601.7, the “Intra-Day RSD” value came out at 1.38% and the “Intra-Day Mean Peak Area” value was 2826.6. For the same molecule, at VEGF protein, the protein binding degree is reported as 50.3%. For the same molecule, in the data set with HaCaT cells [2], the “Cell viability (cytotoxic effect)” value is on record as “cells remained unaffected”. In addition, in the data set with HaCaT cells [3] (HaCaT cells, VEGF-induced), the concentration for half-maximal inhibition (IC50) is 9.2 µM. Further, the “Effect … (in words)” value with NF-κB in RAW 264.3 cells is “suppressed in dose-dependent manners”.
As for `Cc1c(O)c(C)c2c(c1O)C(=O)C[C@@H](c1ccc(O)cc1)O2` [farrerol], in data set [1] (acidic (acetate buffer pH 4–6)), the “Inter-Day RSD” value is listed as 5.89%, the “Inter-Day Mean Peak Area” value is listed as 38,145.2, the “Intra-Day RSD” value was determined as 4.09% and the “Intra-Day Mean Peak Area” value is reported as 31,803.7. Further, in data set [1], the “Stability in aqueous solution (in words)” value is “relatively stable in diverse aqueous conditions”. Moreover, in data set [1] (basic (glycine buffer pH 8–11)), the “Inter-Day RSD” value is recorded as 6.54%, the “Inter-Day Mean Peak Area” value was 35,412.4, the “Intra-Day RSD” value amounted to 2.81% and the “Intra-Day Mean Peak Area” value is listed as 33,332.4. In addition, in data set [1] (neutral (PBS pH 7–8)), the “Inter-Day RSD” value is given as 4.43%, the “Inter-Day Mean Peak Area” value is recorded as 36,478.1, the “Intra-Day RSD” value came to 4.79% and the “Intra-Day Mean Peak Area” value is 31,542.0. In addition, the protein binding degree on VEGF protein came out at 58.3%. Further, in the data set with HaCaT cells [2], the “Cell viability (cytotoxic effect)” value is “cells remained unaffected”. Besides, the IC50 in the data set on HaCaT cells [3] (HaCaT) turned out to be 4.7 µM.
As for `Oc1ccc(/C=C/c2cc(O)cc(O)c2)cc1` [resveratrol], the “Inhibition of VEGF-mediated biological activities (in words)” value with endothelial cells is “robust inhibition”. Moreover, the “Tumor growth (in words)” value in the data set on tumor growth is on record as “significantly suppress tumor growth”.
On to `COc1ccc(-c2coc3cc(O[C@@H]4O[C@H](CO)[C@@H](O)[C@H](O)[C@H]4O)ccc3c2=O)cc1` [ononin], for which, in data set [1] (acidic (acetate buffer pH 4–6)), the “Inter-Day RSD” value was determined as 4.12%, the “Inter-Day Mean Peak Area” value was 275,981.3, the “Intra-Day RSD” value stood at 1.93% and the “Intra-Day Mean Peak Area” value is reported as 254,398.2. For the same molecule, the “Stability in aqueous solution (in words)” value in data set [1] is given as “relatively stable in diverse aqueous conditions”. Also, in data set [1] (basic (glycine buffer pH 8–11)), the “Inter-Day RSD” value is recorded as 4.78%, the “Inter-Day Mean Peak Area” value is recorded as 274,514.7, the “Intra-Day RSD” value was determined as 3.12% and the “Intra-Day Mean Peak Area” value is given as 273,422.8. Also, in data set [1] (neutral (PBS pH 7–8)), the “Inter-Day RSD” value is on record as 3.65%, the “Inter-Day Mean Peak Area” value is recorded as 265,877.4, the “Intra-Day RSD” value was found to be 1.61% and the “Intra-Day Mean Peak Area” value is on record as 313,200.4. Further, the protein binding degree at VEGF protein was 53.4%. Further, the “Cell viability (cytotoxic effect)” value in the data set on HaCaT cells [2] is on record as “cells remained unaffected”. Further, the IC50 in the data set with HaCaT cells [3] (HaCaT cells, VEGF-induced) amounted to 3.8 µM. The “Effect … (in words)” value in the data set with NF-κB in RAW 264.3 cells is “suppressed in dose-dependent manners”.

The values above are taken from publication PMC11767819, “Drug Screening of Flavonoids as Potential VEGF Inhibitors Through Computational Docking and Cell Models” (Molecules, 2025).
